The source of these data is patent US10934277B2, “Enantiomerically purified GPER agonist for use in treating disease states and conditions” (Linnaeus Therapeutics, Inc., priority 2018, dated 2021).

Converted amounts (≈) assume the structure as drawn. “And” between values parts separate entries of the source, which are not always exact repeats. Identical values can stand only once.

Series [1] is described as follows: Dynamic Vapor Sorption/Desorption (DVS). It counts as physicochemical. An excerpt:
The weight change through the sorption/desorption cycle was less than 0.3% weight. Hysteresis was not observed. The material recovered from the Dynamic Vapor Sorption experiment was Form A by XRPD.
Moisture sorption/desorption data were collected on a VTI SGA-100 Vapor Sorption Analyzer. NaCl and PVP were used as calibration standards. Samples were not dried prior to analysis. Sorption and desorption data were collected over a range from 5% to 95% RH at 10% RH increments under a nitrogen purge. The equilibrium criterion used for analysis was less than 0.0100% weight change in 5 minutes with a maximum equilibration time of 3 hours. Data were not corrected for the initial moisture content of the samples.

Series [2] is described as follows: Approximate solubility of SRR G-1 Form A in solvents. It counts as physicochemical.
The nature of series [3]: Solubility measurement in pH buffers. It counts as physicochemical. The conditions noted are these: 37° C., 24 hrs; for solubility at 24 h: aqueous buffer, thermodynamic from solid, read-out: Solubility; for Form Conversion: XRPD of residual solids.
A short description of series [4]: Kinetic solubility measurement in bio-relevant media. The format is physicochemical. Particulars: 37° C.; for Form Change: SGF; for solubility at 1 h / solubility at 2 h / solubility at 4 h / solubility at 24 h: thermodynamic from solid.
Series [5] can be described thus: Physical stability of Form B (desolvation). It counts as physicochemical. The protocol: The physical stability of Form B was investigated. […] Vacuum at 70° C.
Series [6] in a line: Physical stability of amorphous material. The format is physicochemical. The method, then:
Amorphous material crystallized to Form A upon exposure to either elevated temperature (within 4 days at 60° C.) or humidity (within 12 days at 75% RH).

Series [7] is described as follows: Disproportionation of salts in water slurry. The format is physicochemical. An excerpt: The possibility of disproportionation in water was investigated. […] The excess solids were recovered and reanalyzed by XRPD for evidence of freebase or benzenesulfonic acid.
The possibility of disproportionation in water was investigated. […] The excess solids were recovered and reanalyzed by XRPD for evidence of freebase or naphthalene-2-sulfonic acid.

A short description of series [8]: Plasma concentration of SRR G-1 in rats after oral dosing (LC-MS/MS). The format is in vivo. The conditions noted are these: rat, PO 10 mg/kg, individual animals (R1-R9). An excerpt: The results are shown in Tables 22-24 for each respectively.
The next series deals with YUMM1.7 melanoma cells. Kind of series: YUMM1.7 proliferation assay (4 day growth). The format is cell-based. The conditions noted are these: 500 nM. The method, then: YUMM1.7 cells were cultured for at least 1 passage after thawing and were cultured in DMEM with 5% FBS (Invitrogen) and 1% antibiotic-antimycotic (gibco) at 37C 5% CO2. Proliferation assays were performed by plating 15,000 cells in 12-well plates with 5 replicates per condition tested. Media and drugs were refreshed on Day 2. On Day 4, cells were trypsinized using 0.25 ml 0.05% Trypsin with EDTA (Invitrogen) for 5 minutes to detach from the plate, mixed with 0.75 ml of culture media, and counted using a hemocytometer.
Starting cell numbers were 15,000.

Turning to `CC(=O)c1ccc2c(c1)[C@@H]1C=CC[C@@H]1[C@H](c1cc3c(cc1Br)OCO3)N2` [SRR G-1 Form A, 1-((3aS,4R,9bR)-4-(6-bromobenzo[d][1,3]dioxol-5-yl)-3a,4,5,9b-tetrahydro-3H-cyclopenta[c]quinolin-8-yl)ethan-1-one], in series [1] (DVS isotherm), the hygroscopicity result is recorded as “low hygroscopicity”. The “weight change through the sorption/desorption cycle” value in [1] (DVS, 5% to 95% RH) was “less than 0.3 % weight”. Besides, the solubility (as a rule, the dissolved amount per volume that the medium holds) was 2000 µg/mL (≈ 4850 µM) in series [2] (oil or lipid, sesame oil); 24000 µg/mL (≈ 58200 µM) in series [2] (organic solvent or mixture, ACN); > 89000 µg/mL in series [2] (organic solvent or mixture, DCM); > 203000 µg/mL in series [2] (organic solvent or mixture, DMSO); > 65000 µg/mL in series [2] (organic solvent or mixture, EtOAc); 7000 µg/mL (≈ 17000 µM) in [2] (organic solvent or mixture, EtOH). Besides, the solubility in series [2] (organic solvent or mixture, IPA) is 4000 µg/mL (≈ 9700 µM); in series [2] (organic solvent or mixture, MeOH) it was 6000 µg/mL (≈ 14600 µM); in series [2] (organic solvent or mixture, THF) it was > 67000 µg/mL; in series [2] (organic solvent or mixture, acetone), > 122000 µg/mL; in series [2] (organic solvent or mixture, diethyl ether), 8000 µg/mL (≈ 19400 µM); in [2] (organic solvent or mixture, toluene), 40000 µg/mL (≈ 97000 µM). For the same compound, in [2] (water), the solubility was < 2000 µg/mL. The solubility at 24 h in series [3] (pH 2.0 buffer), in series [3] (pH 3.0 buffer), in [3] (pH 4.0 buffer), in series [3] (pH 5.0 buffer), in [3] (pH 6.0 buffer) and in series [3] (pH 7.0 buffer) was < 0.72 µg/mL in each case. Further, the solubility at 24 h was < 0.72 µg/mL in series [3] (pH 8.0 buffer); 5.7 µg/mL (≈ 13.8 µM) in series [4] (simulated gastric fluid, SGF (pH 1.8), 24 h); 7.3 µg/mL (≈ 17.7 µM) in series [4] (FaSSIF (pH 6.5), 24 h); 37 µg/mL (≈ 89.7 µM) in series [4] (FeSSIF (pH 5.0), 24 h). Besides, the “Form Conversion” value in series [3] (pH 2.0 buffer), in series [3] (pH 3.0 buffer), in series [3] (pH 4.0 buffer), in [3] (pH 5.0 buffer), in [3] (pH 6.0 buffer) and in series [3] (pH 7.0 buffer) was “No” throughout. Also, in series [3] (pH 8.0 buffer), the “Form Conversion” value is “No”. Besides, the “FC (Form Change)” value in series [4] (FaSSIF, 1 h) is given as “No”; in [4] (FaSSIF, 2 h) it was “No”; in series [4] (FaSSIF, 4 h) it was “No”; in [4] (FaSSIF, 24 h) it was “No”; in [4] (FeSSIF, 1 h) it was “No”; in series [4] (FeSSIF, 2 h) it was “No”. The “FC (Form Change)” value was “No” in [4] (FeSSIF, 4 h) and “No” in series [4] (FeSSIF, 24 h). The “Form Change” value in [4] (1 h), in [4] (2 h), in [4] (4 h) and in [4] (24 h) was “No” throughout. Further, the solubility at 1 h was 5.9 µg/mL (≈ 14.3 µM) in [4] (simulated gastric fluid, SGF (pH 1.8), 1 h); 7.1 µg/mL (≈ 17.2 µM) in series [4] (FaSSIF (pH 6.5), 1 h); 36 µg/mL (≈ 87.3 µM) in series [4] (FeSSIF (pH 5.0), 1 h). In addition, the solubility at 2 h in [4] (simulated gastric fluid, SGF (pH 1.8), 2 h) is 6.2 µg/mL (≈ 15 µM); in [4] (FaSSIF (pH 6.5), 2 h), 6.8 µg/mL (≈ 16.5 µM); in [4] (FeSSIF (pH 5.0), 2 h) it was 37 µg/mL (≈ 89.7 µM). The solubility at 4 h was 6.6 µg/mL (≈ 16 µM) in [4] (simulated gastric fluid, SGF (pH 1.8), 4 h); 7.1 µg/mL (≈ 17.2 µM) in series [4] (FaSSIF (pH 6.5), 4 h); 38 µg/mL (≈ 92.2 µM) in series [4] (FeSSIF (pH 5.0), 4 h).
For `CC(=O)c1ccc2c(c1)[C@@H]1C=CC[C@@H]1[C@H](c1cc3c(cc1Br)OCO3)N2` [Form B, 1-((3aS,4R,9bR)-4-(6-bromobenzo[d][1,3]dioxol-5-yl)-3a,4,5,9b-tetrahydro-3H-cyclopenta[c]quinolin-8-yl)ethan-1-one], the desolvation result is given as “Almost complete desolvation” in series [5] (exposure to 90 to 100° C. for 25 minutes), “Complete desolvation to Form C” in series [5] (exposure to 120° C.) and “not sufficient for desolvation to occur” in series [5] (vacuum at 70° C. (or below)).
`CC(=O)c1ccc2c(c1)[C@@H]1C=CC[C@@H]1[C@H](c1cc3c(cc1Br)OCO3)N2` [Amorphous material]: the “time to crystallization to Form A” value in [6] (elevated temperature, 60° C.) is recorded as ≤ 4 days; in series [6] (humidity, 75% RH) it was ≤ 12 days.
Regarding `CC(=O)c1ccc2c(c1)[C@@H]1C=CC[C@@H]1[C@H](c1cc3c(cc1Br)OCO3)N2.O=S(=O)(O)c1ccccc1` [SRR G-1 Besylate Form A], the disproportionation in water result in series [7] (slurried in water for 4 days, XRPD of recovered solids) was “disproportionation did not occur”. Besides, the “Plasma Conc.” value is 39.2 ng/mL and 35.2 ng/mL and 34.1 ng/mL in series [8] (time 0.500 h); 43.9 ng/mL and 42.0 ng/mL and 44.5 ng/mL in series [8] (time 1.00 h); 28.5 ng/mL and 30.6 ng/mL and 32.3 ng/mL in series [8] (time 2.00 h); 20.0 ng/mL and 16.7 ng/mL and 19.5 ng/mL in series [8] (time 4.00 h); 8.17 ng/mL and 5.78 ng/mL and 6.18 ng/mL in series [8] (time 8.00 h); 0.837 ng/mL and 0.668 ng/mL and 0.647 ng/mL in series [8] (time 24.0 h, LLOQ 0.100 ng/mL).
As for `CC(=O)c1ccc2c(c1)[C@@H]1C=CC[C@@H]1[C@H](c1cc3c(cc1Br)OCO3)N2` (racemic) [Racemic G-1, (±)1-(4-(6-bromobenzo[d][1,3]dioxol-5-yl)-(3 aS*,4R*,9bR*)-tetrahydro-3H-cyclopenta[c]quinolin-8-yl)ethan-1-one, reference compound], the “doubling compared with that seen with the vehicle” value in the series on YUMM1.7 melanoma cells (4 days) is on record as “about half”. This compound also displayed a Doublings in the series on YUMM1.7 melanoma cells (4 days, starting cell number 15,000) of 3.4. Also, the “cell count after 4 days of growth (single replicates)” value in the series with YUMM1.7 melanoma cells (starting cell number 15,000, 5 replicates) was 16 tens of thousands and 18 tens of thousands and 19 tens of thousands and 17 tens of thousands and 24 tens of thousands. Besides, the “average cell count after 4 days of growth” value in the series on YUMM1.7 melanoma cells (starting cell number 15,000, average of 5 replicates) is 18.8 tens of thousands.
For `CC(=O)c1ccc2c(c1)[C@@H]1C=CC[C@@H]1[C@H](c1cc3c(cc1Br)OCO3)N2.O=S(=O)(O)c1ccc2ccccc2c1` [SRR G-1 Napsylate Form A], the disproportionation in water result in series [7] (slurried in water for 5 days, XRPD of recovered solids (freebase Form A recovered)) is reported as “disproportionation occurred”. The “Plasma Conc.” value in [8] (time 0.500 h) is 62.2 ng/mL and 50.6 ng/mL and 22.6 ng/mL; in series [8] (time 1.00 h), 81.9 ng/mL and 67.5 ng/mL and 33.2 ng/mL; in [8] (time 2.00 h) it was 46.6 ng/mL and 39.9 ng/mL and 24.3 ng/mL; in series [8] (time 4.00 h), 14.6 ng/mL and 14.0 ng/mL and 15.6 ng/mL; in series [8] (time 8.00 h) it was 5.45 ng/mL and 6.09 ng/mL and 3.97 ng/mL; in [8] (time 24.0 h, LLOQ 0.100 ng/mL), 0.641 ng/mL and 0.558 ng/mL and 0.435 ng/mL.
